Reference: patent publication US7612200B2, “Inhibitors of protein kinases” (Locus Pharmaceuticals, Inc., priority 2004, dated 2009)

Tests used:
Type in all cases: biochemical
Pyk2 = Pyk2 (Homo sapiens, UniProt Q14289); test: Protein kinase inhibition, Pyk2; settings: Rate (μM) 2, read-out: % Control
TAK1 = TAK1 (Homo sapiens, UniProt O43318); test: Protein kinase inhibition, TAK1; settings: Rate (μM) 2, read-out: % Control
TrkA = TrkA (Homo sapiens, UniProt P04629); test: Protein kinase inhibition, TrkA; settings: Rate (μM) 2, read-out: % Control
TrkA, sequence (P04629 33-796): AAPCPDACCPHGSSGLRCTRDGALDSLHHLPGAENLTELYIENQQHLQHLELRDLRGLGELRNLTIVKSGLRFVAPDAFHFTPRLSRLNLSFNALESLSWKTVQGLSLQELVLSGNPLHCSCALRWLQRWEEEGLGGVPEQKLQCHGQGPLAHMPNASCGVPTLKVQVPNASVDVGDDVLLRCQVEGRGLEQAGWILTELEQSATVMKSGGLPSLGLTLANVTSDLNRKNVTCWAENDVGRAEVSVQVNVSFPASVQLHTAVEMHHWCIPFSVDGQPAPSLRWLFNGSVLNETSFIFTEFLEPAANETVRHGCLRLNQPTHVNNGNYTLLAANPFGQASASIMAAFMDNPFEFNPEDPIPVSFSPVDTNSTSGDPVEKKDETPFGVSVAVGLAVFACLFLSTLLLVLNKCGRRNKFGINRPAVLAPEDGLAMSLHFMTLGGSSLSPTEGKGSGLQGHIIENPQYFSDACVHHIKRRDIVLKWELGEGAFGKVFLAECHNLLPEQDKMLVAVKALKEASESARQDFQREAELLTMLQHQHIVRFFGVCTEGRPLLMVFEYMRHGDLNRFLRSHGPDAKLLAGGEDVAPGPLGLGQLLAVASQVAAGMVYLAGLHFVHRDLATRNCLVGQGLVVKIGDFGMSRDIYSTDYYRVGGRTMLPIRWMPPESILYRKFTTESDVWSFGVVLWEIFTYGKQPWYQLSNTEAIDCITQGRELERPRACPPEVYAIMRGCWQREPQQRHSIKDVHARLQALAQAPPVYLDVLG

JNK2α2 = JNK2α2 (Homo sapiens, UniProt P45984); test: JNK2α2 Kinase Activity
JNK2α2, sequence (P45984 whole entry): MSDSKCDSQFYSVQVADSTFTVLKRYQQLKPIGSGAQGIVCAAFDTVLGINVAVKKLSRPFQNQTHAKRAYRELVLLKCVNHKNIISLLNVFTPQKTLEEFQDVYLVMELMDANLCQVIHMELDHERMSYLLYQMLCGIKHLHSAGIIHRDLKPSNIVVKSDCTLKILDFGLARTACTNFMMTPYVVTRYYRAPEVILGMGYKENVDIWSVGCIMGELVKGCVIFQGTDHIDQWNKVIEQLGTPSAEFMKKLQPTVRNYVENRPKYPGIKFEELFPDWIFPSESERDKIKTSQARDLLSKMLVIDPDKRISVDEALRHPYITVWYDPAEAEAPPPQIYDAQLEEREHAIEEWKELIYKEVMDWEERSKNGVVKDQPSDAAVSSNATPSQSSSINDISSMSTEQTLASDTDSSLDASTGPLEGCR
Procedure: (§1) JNK2α2 Kinase Activity: In a final reaction volume of 25 μl, JNK2α2 (h) (5-10 mU) is incubated with 50 mM Tris pH 7.5, 0.1 mM EGTA, 0.1% β-mercaptoethanol, 3 μM ATF2, 10 mM MgAcetate and [γ-^33P-ATP] (specific activity approx. 500 cpm/pmol, concentration as required). The reaction is initiated by the addition of the MgATP mix. After incubation for 40 minutes at room temperature, the reaction is stopped by the addition of 5 μl of a 3% phosphoric acid solution. 10 μl of the reaction is then spotted onto a P30 filtermat and washed three times for 5 minutes in 75 mM phosphoric acid and once in methanol prior to drying and scintillation counting.

Lyn = Lyn (Homo sapiens, UniProt P07948); test: Lyn Kinase Activity; settings: compound at 2 μm
Lyn, sequence (P07948 whole entry): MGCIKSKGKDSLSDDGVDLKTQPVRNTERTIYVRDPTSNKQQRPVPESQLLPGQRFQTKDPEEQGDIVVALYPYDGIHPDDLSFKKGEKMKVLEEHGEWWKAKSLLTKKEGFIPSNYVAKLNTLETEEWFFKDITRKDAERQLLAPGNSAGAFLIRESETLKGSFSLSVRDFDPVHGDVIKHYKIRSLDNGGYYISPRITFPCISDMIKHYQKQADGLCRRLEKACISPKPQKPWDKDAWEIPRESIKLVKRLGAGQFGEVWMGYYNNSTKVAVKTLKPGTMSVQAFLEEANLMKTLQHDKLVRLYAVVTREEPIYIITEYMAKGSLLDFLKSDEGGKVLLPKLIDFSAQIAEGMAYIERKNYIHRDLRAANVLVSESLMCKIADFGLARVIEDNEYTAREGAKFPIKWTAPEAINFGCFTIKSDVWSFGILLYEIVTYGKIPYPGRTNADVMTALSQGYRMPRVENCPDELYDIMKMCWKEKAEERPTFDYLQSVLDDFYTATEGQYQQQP
Procedure: as §1, with “Lyn” for “JNK2α2”, “EGTA, 0.1 mM Na3VO4,” for “EGTA,”, “0.1 mg/ml poly(Glue, Tyr) 4:1,” for “3 μM ATF2,”, “Filtermat A” for “P30 filtermat”

TrkB = TrkB (Homo sapiens, UniProt Q16620); test: TrkB Kinase Activity
TrkB, sequence (Q16620 32-822): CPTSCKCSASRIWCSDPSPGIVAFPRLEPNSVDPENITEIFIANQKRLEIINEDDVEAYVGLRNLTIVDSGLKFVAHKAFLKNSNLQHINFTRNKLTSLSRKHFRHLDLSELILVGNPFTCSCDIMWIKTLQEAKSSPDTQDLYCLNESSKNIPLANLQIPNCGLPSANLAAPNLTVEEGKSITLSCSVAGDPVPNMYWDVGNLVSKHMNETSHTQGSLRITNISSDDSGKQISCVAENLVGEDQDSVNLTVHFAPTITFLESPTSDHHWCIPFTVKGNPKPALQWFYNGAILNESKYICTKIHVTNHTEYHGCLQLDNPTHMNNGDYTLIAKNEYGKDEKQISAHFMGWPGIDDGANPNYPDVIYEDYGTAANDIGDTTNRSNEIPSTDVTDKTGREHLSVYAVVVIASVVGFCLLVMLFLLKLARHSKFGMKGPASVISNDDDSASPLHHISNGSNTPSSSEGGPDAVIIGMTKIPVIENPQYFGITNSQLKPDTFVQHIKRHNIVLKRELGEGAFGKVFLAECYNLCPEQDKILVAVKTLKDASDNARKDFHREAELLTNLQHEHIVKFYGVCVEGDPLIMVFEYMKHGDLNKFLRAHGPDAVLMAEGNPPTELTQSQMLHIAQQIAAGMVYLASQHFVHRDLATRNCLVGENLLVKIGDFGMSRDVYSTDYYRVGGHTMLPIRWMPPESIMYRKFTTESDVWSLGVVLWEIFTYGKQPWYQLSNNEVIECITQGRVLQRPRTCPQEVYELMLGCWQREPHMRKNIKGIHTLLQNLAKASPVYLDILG
Procedure: TrkB Kinase Activity: In a final reaction volume of 25 μl, TrkB (h) (5-10 mU) is incubated with 8 mM MOPS pH 7.0, 0.2 mM EDTA, 0.1 mg/ml poly(Glu, Tyr) 4:1, 10 mM MgAcetate and [γ-^33P-ATP] (specific activity approx. 500 cpm/pmol, concentration as required). The reaction is initiated by the addition of the MgATP mix. After incubation for 40 minutes at room temperature, the reaction is stopped by the addition of 5 μl of a 3% phosphoric acid solution. 10 μl of the reaction is then spotted onto a Filtermat A and washed three times for 5 minutes in 75 mM phosphoric acid and once in methanol prior to drying and scintillation counting.

Pyk2, sequence (Q14289 whole entry): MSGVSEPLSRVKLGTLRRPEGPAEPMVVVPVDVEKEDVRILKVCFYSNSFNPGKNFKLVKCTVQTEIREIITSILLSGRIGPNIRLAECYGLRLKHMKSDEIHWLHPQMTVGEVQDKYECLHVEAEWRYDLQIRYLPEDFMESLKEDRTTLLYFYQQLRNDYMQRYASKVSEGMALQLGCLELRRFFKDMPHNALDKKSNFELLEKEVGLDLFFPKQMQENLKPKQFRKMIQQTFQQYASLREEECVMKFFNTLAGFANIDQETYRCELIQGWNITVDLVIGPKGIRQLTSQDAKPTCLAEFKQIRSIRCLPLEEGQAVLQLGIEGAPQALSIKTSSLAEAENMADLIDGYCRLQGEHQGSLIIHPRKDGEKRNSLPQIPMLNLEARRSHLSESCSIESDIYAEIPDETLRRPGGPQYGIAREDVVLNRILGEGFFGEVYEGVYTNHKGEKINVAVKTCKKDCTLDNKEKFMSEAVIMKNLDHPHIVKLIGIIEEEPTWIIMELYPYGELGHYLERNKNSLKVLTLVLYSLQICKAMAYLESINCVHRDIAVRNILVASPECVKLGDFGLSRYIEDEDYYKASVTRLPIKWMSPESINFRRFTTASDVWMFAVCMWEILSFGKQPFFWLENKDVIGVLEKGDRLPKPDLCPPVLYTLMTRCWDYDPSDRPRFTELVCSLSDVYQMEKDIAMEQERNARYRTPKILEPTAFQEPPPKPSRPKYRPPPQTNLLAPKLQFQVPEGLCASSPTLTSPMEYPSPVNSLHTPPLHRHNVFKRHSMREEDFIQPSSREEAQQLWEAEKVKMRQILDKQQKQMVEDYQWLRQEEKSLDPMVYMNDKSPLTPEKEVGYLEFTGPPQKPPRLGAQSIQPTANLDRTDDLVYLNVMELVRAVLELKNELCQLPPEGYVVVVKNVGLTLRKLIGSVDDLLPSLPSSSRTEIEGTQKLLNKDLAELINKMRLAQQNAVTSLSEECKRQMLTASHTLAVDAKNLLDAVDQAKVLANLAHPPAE
TAK1, sequence (O43318 1-303 limits assumed): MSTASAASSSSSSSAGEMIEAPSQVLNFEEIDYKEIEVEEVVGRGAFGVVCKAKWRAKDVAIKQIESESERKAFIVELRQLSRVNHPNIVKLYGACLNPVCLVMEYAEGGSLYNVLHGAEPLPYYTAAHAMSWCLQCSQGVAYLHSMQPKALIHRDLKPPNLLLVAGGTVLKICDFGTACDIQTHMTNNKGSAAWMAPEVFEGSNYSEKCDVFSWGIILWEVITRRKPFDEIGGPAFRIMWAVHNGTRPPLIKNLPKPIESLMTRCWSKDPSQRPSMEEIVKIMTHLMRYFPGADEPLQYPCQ

remaining activity at 2 µM (Pyk2): 51 to 75%
remaining activity at 2 µM (TAK1): 76 to 100%
remaining activity at 2 µM (TrkA): 76 to 100%
% Inhibition at 2 μm (JNK2α2; JNK2a2, compound at 2 μm): 26-50%
% inhibition (JNK2α2; JNK2α2, Human, Rate (μM) 2): 26-50%
% Inhibition at 2 μm (Lyn): 76-100%
remaining activity at 2 µM (TrkB; 40 min, Human, Rate (μM) 2, read-out: % Control): 76 to 100%
% Inhibition at 2 μm (TrkB; compound at 2 μm): 76-100%
SMILES: CC(C)(C)c1cc(C(=O)N2CCS(=O)(=O)CC2)c(NC(=O)Nc2ccc(Oc3ccncc3)cc2)s1 [Example 3, 1-[5-tert-Butyl-3-(1,1-dioxo-1λ^6-thiomorpholine-4-carbonyl)thiophen-2-yl]-3-[4-(pyridin-4-yloxy)phenyl]urea]
